The values that follow come from patent US12534452B2, “N-(1H-imidazol-2-yl)benzamide compound and pharmaceutical composition comprising the same as active ingredient” (KAINOS MEDICINE, INC., priority 2019, dated 2026).

The assay has as its target IRAK4 (Homo sapiens (Human), UniProt Q9NWZ3). As to the kind of experiment: In vitro IRAK4 phosphorylation activity assay. In kind it is biochemical. As to conditions: [γ-33P]-ATP, myelin basic protein substrate, 40 minutes at room temperature; categories. The procedure, abridged:
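Radiometric filter-binding assay, no compound–kinase preincubation; 8 mM MOPS pH 7.0, 0.2 mM EDTA, 10 mM Mg acetate, 0.33 mg/mL myelin basic protein substrate, [γ-33P]-ATP. Reaction 40 min at room temperature, stopped with phosphoric acid, scintillation counting; IC50 reported in categories.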

Sequence of IRAK4 (Q9NWZ3 whole entry): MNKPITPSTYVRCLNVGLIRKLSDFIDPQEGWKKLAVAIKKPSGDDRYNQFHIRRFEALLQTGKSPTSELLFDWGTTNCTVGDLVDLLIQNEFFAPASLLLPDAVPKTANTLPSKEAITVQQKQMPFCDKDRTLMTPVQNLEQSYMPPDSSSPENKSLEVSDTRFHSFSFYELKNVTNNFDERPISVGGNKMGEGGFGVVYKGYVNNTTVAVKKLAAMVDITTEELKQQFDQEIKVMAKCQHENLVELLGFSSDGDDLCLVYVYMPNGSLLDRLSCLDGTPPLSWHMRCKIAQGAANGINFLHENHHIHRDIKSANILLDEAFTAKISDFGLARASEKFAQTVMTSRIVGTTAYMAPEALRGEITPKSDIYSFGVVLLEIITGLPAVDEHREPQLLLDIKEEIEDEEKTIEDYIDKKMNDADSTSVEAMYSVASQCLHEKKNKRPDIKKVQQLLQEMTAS

`O=C(O)CCCCCc1cn(-c2ccccc2)c(NC(=O)c2cccc(-c3cn[nH]c3)c2)n1` [Example 92, 6-(2-(3-(1H-pyrazol-4-yl)benzamido)-1-phenyl-1H-imidazol-4-yl)hexanoic acid] gave an IC50 of less than 50 nM.

Compound `COC[C@H]1CCCN1C(=O)CCCCCc1cn(-c2ccccc2)c(NC(=O)c2cccc(-c3cn[nH]c3)c2)n1` [Example 101, (R)—N-(4-(6-(2-(methoxymethyl)pyrrolidin-1-yl)-6-oxohexyl)-1-phenyl-1H-imidazol-2-yl)-3-(1H-pyrazol-4-yl)benzamide] returned a concentration for half-maximal inhibition (IC50) of less than 50 nM.

For the compound `O=C(Nc1nc(CCCCCCN2CCCCC2)cn1-c1ccc(F)cc1F)c1cccc(-c2cn[nH]c2)c1` [Example 302, N-(1-(2,4-difluorophenyl)-4-(6-(piperidin-1-yl)hexyl)-1H-imidazol-2-yl)-3-(1H-pyrazol-4-yl)benzamide], the IC50 is more than 100 nM.

For the compound `O=C(CCCc1cn(-c2ccccc2)c(NC(=O)c2cccc(-c3ccc4ncsc4c3)c2)n1)NC1CC1` [Example 279, 3-(benzo[d]thiazol-6-yl)-N-(4-(4-(cyclopropylamino)-4-oxobutyl)-1-phenyl-1H-imidazol-2-yl)benzamide], the concentration for half-maximal inhibition (IC50) was less than 50 nM.

In the case of `COC1CCN(C(=O)CCCc2cn(-c3ccccc3)c(NC(=O)c3cccc(-c4cnn(C)c4)c3)n2)CC1` [Example 177, N-(4-(4-(4-methoxypiperidin-1-yl)-4-oxobutyl)-1-phenyl-1H-imidazol-2-yl)-3-(1-methyl-1H-pyrazol-4-yl)benzamide], the IC50 was less than 50 nM.

On to `CN1CCC(NC(=O)CCCc2cn(-c3ccccc3)c(NC(=O)c3cccc(-c4cnn(C)c4)c3)n2)CC1` [Example 148, 3-(1-methyl-1H-pyrazol-4-yl)-N-(4-(4-((1-methylpiperidin-4-yl)amino)-4-oxobutyl)-1-phenyl-1H-imidazol-2-yl)benzamide], for which the IC50 was in the range of 50 to 100 nM.

With `Cn1cc(-c2cccc(C(=O)Nc3nc(CCCC(=O)NCCC(C)(C)O)cn3-c3ccccc3)c2)cn1` [Example 171, N-(4-(4-((3-hydroxy-3-methylbutyl)amino)-4-oxobutyl)-1-phenyl-1H-imidazol-2-yl)-3-(1-methyl-1H-pyrazol-4-yl)benzamide], the concentration for half-maximal inhibition (IC50) was less than 50 nM.

`CNC(=O)CCCc1cn(-c2ccccc2)c(NC(=O)c2cccc(-c3cn[nH]c3)c2)n1` [Example 60, N-(4-(4-(methylamino)-4-oxobutyl)-1-phenyl-1H-imidazol-2-yl)-3-(1H-pyrazol-4-yl)benzamide] had a half-inhibitory concentration (IC50) of less than 50 nM.

The compound `O=C(CCCc1cn(-c2ccccc2)c(NC(=O)c2cccc(-c3cn[nH]c3)c2)n1)Nc1ccccc1F` [Example 65, N-(4-(4-((2-fluorophenyl)amino)-4-oxobutyl)-1-phenyl-1H-imidazol-2-yl)-3-(1H-pyrazol-4-yl)benzamide] registered a concentration for half-maximal inhibition (IC50) of less than 50 nM.

`O=C(O)CCc1cn(-c2ccccc2)c(NC(=O)c2cccc(-c3cn[nH]c3)c2)n1` [Example 7, 3-(2-(3-(1H-pyrazol-4-yl)benzamido)-1-phenyl-1H-imidazol-4-yl)propanoic acid] displayed a half-maximal inhibitory concentration (IC50) of less than 50 nM.

`Cn1cc(-c2cccc(C(=O)Nc3nc(CCCCNC(=O)C4CC4)cn3-c3ccccc3)c2)cn1` [Example 227, N-(4-(4-(cyclopropanecarboxamido)butyl)-1-phenyl-1H-imidazol-2-yl)-3-(1-methyl-1H-pyrazol-4-yl)benzamide] showed an IC50 of less than 50 nM.

The compound `Cn1cc(-c2cccc(C(=O)Nc3nc(CCCC(=O)N4CCN(C5CC5)CC4)cn3-c3ccccc3)c2)cn1` [Example 149, N-(4-(4-(4-cyclopropylpiperazin-1-yl)-4-oxobutyl)-1-phenyl-1H-imidazol-2-yl)-3-(1-methyl-1H-pyrazol-4-yl)benzamide] came in with an IC50 of less than 50 nM.

On to `C[Si](C)(C)CCOCn1cc(-c2cccc(C(=O)Nc3nc(CCCC(=O)NC4CC4)cn3-c3ccccc3)c2)cn1` [Example 67, N-(4-(4-(cyclopropylamino)-4-oxobutyl)-1-phenyl-1H-imidazol-2-yl)-3-(1-((2-(trimethylsilyl)ethoxy)methyl)-1H-pyrazol-4-yl)benzamide], for which the concentration for half-maximal inhibition (IC50) was more than 100 nM.

In turn, `O=C(CCc1cn(-c2ccncc2)c(NC(=O)c2cccc(-c3cn[nH]c3)c2)n1)Nc1ccccc1` [Example 303, N-(4-(3-oxo-3-(phenylamino)propyl)-1-(pyridin-4-yl)-1H-imidazol-2-yl)-3-(1H-pyrazol-4-yl)benzamide] showed an IC50 of more than 100 nM.

In the case of `O=C(CCCCCc1cn(-c2ccccc2)c(NC(=O)c2cccc(-c3ccc4ncsc4c3)c2)n1)NC1CC1` [Example 286, 3-(benzo[d]thiazol-6-yl)-N-(4-(6-(cyclopropylamino)-6-oxohexyl)-1-phenyl-1H-imidazol-2-yl)benzamide], the IC50 is less than 50 nM.

As for `O=C(Nc1nc(CCCCCCN2CCCC2=O)cn1-c1ccccc1)c1cccc(-c2ccc3[nH]ncc3c2)c1` [Example 259, 3-(1H-indazol-5-yl)-N-(4-(6-(2-oxopyrrolidin-1-yl)hexyl)-1-phenyl-1H-imidazol-2-yl)benzamide], the IC50 is less than 50 nM.

On to `CN(C)C1CCN(C(=O)CCCCCc2cn(-c3ccccc3)c(NC(=O)c3cccc(-c4ccc5ncsc5c4)c3)n2)CC1` [Example 287, 3-(benzo[d]thiazol-6-yl)-N-(4-(6-(4-(dimethylamino)piperidin-1-yl)-6-oxohexyl)-1-phenyl-1H-imidazol-2-yl)benzamide], for which the 50% inhibitory concentration (IC50) was less than 50 nM.

As for `O=C(Nc1nc(CCCC(=O)N2CCCCC2)cn1-c1ccccc1)c1cccc(-c2cn[nH]c2F)c1` [Example 231, 3-(5-fluoro-1H-pyrazol-4-yl)-N-(4-(4-oxo-4-(piperidin-1-yl)butyl)-1-phenyl-1H-imidazol-2-yl)benzamide], the half-maximal inhibitory concentration (IC50) is less than 50 nM.

Regarding `Cn1cc(-c2cccc(C(=O)Nc3nc(CCCC(=O)NCC4CCOCC4)cn3-c3ccccc3)c2)cn1` [Example 172, 3-(1-methyl-1H-pyrazol-4-yl)-N-(4-(4-oxo-4-(((tetrahydro-2H-pyran-4-yl)methyl)amino)butyl)-1-phenyl-1H-imidazol-2-yl)benzamide], the IC50 was less than 50 nM.

With `CN(C)C1CCN(C(=O)CCCc2cn(-c3ccccc3)c(NC(=O)c3cccc(-c4cnn(C)c4)c3)n2)CC1` [Example 146, N-(4-(4-(4-(dimethylamino)piperidin-1-yl)-4-oxobutyl)-1-phenyl-1H-imidazol-2-yl)-3-(1-methyl-1H-pyrazol-4-yl)benzamide], the IC50 was less than 50 nM.

Take `O=C(Nc1nc(CCCCCCO)cn1-c1ccccc1)c1cccc(-c2cn[nH]c2)c1` [Example 121, N-(4-(6-hydroxyhexyl)-1-phenyl-1H-imidazol-2-yl)-3-(1H-pyrazol-4-yl)benzamide]: the IC50 is less than 50 nM.

As to `O=C(Nc1nc(CCCCCCN2CCSCC2)cn1-c1ccccc1)c1cccc(-c2cn[nH]c2)c1` [Example 124, N-(1-phenyl-4-(6-thiomorpholinohexyl)-1H-imidazol-2-yl)-3-(1H-pyrazol-4-yl)benzamide], the IC50 is less than 50 nM.

The compound `CC(C)N1CCN(C(=O)CCCc2cn(-c3ccccc3)c(NC(=O)c3cccc(-c4cnn(C)c4)c3)n2)CC1` [Example 145, N-(4-(4-(4-isopropylpiperazin-1-yl)-4-oxobutyl)-1-phenyl-1H-imidazol-2-yl)-3-(1-methyl-1H-pyrazol-4-yl)benzamide] gave a half-maximal inhibitory concentration (IC50) of less than 50 nM.

The compound `O=C(Nc1nc(CCC(=O)N2CCCCC2)cn1-c1ccccc1)c1cccc(-c2cn[nH]c2)c1` [Example 12, N-(4-(3-oxo-3-(piperidin-1-yl)propyl)-1-phenyl-1H-imidazol-2-yl)-3-(1H-pyrazol-4-yl)benzamide] returned a half-inhibitory concentration (IC50) of less than 50 nM.

In turn, `CN(C)C1CCC(NC(=O)CCCc2cn(-c3ccccc3)c(NC(=O)c3cccc(-c4cnn(C)c4)c3)n2)CC1` (centres unmarked) [Example 147, N-(4-(4-((4-(dimethylamino)cyclohexyl)amino)-4-oxobutyl)-1-phenyl-1H-imidazol-2-yl)-3-(1-methyl-1H-pyrazol-4-yl)benzamide] yielded an IC50 of less than 50 nM.

Take `O=C(CCCCc1cn(-c2ccccc2)c(NC(=O)c2cccc(-c3cn[nH]c3)c2)n1)NC1CC1` [Example 88, N-(4-(5-(cyclopropylamino)-5-oxopentyl)-1-phenyl-1H-imidazol-2-yl)-3-(1H-pyrazol-4-yl)benzamide]: the half-inhibitory concentration (IC50) was less than 50 nM.

Regarding `O=C(CCCc1cn(-c2ccccc2)c(NC(=O)c2cccc(-c3cnn(CF)c3)c2)n1)NC1CC1` [Example 234, N-(4-(4-(cyclopropylamino)-4-oxobutyl)-1-phenyl-1H-imidazol-2-yl)-3-(1-(fluoromethyl)-1H-pyrazol-4-yl)benzamide], the IC50 is less than 50 nM.

As to `CN1CCN(C(=O)CCCc2cn(-c3ccccc3)c(NC(=O)c3cccc(-c4cn[nH]c4F)c3)n2)CC1` [Example 230, 3-(5-fluoro-1H-pyrazol-4-yl)-N-(4-(4-(4-methylpiperazin-1-yl)-4-oxobutyl)-1-phenyl-1H-imidazol-2-yl)benzamide], the 50% inhibitory concentration (IC50) was less than 50 nM.

In turn, `Cn1ncc2cc(-c3cccc(C(=O)Nc4nc(CCCCCCN5CCOCC5)cn4-c4ccccc4)c3)ccc21` [Example 264, 3-(1-methyl-1H-indazol-5-yl)-N-(4-(6-morpholinohexyl)-1-phenyl-1H-imidazol-2-yl)benzamide] came in with an IC50 of more than 100 nM.

As for `Cn1cc(-c2cccc(C(=O)Nc3nc(CCCC(=O)N4CCN(S(C)(=O)=O)CC4)cn3-c3ccccc3)c2)cn1` [Example 206, 3-(1-methyl-1H-pyrazol-4-yl)-N-(4-(4-(4-(methylsulfonyl)piperazin-1-yl)-4-oxobutyl)-1-phenyl-1H-imidazol-2-yl)benzamide], the IC50 is less than 50 nM.

`C[C@H]1CCCCN1C(=O)CCCc1cn(-c2ccccc2)c(NC(=O)c2cccc(-c3cn[nH]c3)c2)n1` [Example 62, (S)—N-(4-(4-(2-methylpiperidin-1-yl)-4-oxobutyl)-1-phenyl-1H-imidazol-2-yl)-3-(1H-pyrazol-4-yl)benzamide]: the 50% inhibitory concentration (IC50) is less than 50 nM.

`O=C(CCc1cn(-c2ccccc2)c(NC(=O)c2cccc(-c3cnoc3)c2)n1)Nc1ccccc1` [Example 5, 3-(isoxazol-4-yl)-N-(4-(3-oxo-3-(phenylamino)propyl)-1-phenyl-1H-imidazol-2-yl)benzamide] returned a concentration for half-maximal inhibition (IC50) of more than 100 nM.

By IC50 is commonly meant the concentration that gives 50% inhibition.
